Patent US20120015063A1, “COMPOSITION FOR TREATMENT AND/OR PREVENTION OF SKIN DISORDER” (priority 2009, published 2012)

What was measured:
hyaluronic acid (HA) = test: Identification of GAG in skin extract by cellulose acetate membrane electrophoresis (Example 2); type: in vivo, Hos: HR-1 hairless mice; conditions: 0.24% glucosamine-mixed diet, UV-irradiated
Method: After the grouping, UV-irradiated groups were irradiated with UV light three times a week. Specifically, for the first week, 1 minute of UV irradiation was carried out. For the second week, 2 minutes of UV irradiation, and for the third and fourth week, 3 minutes of UV irradiation were conducted. From the fourth week to the time of dissection completed, 4 minutes of UV irradiation were carried out. The total irradiation amount was 1.35 J. In addition, moisture content and an amount of food ingested were measured twice a week, and body weight was measured once a week.
A UVB lump GL20SE (SANKYO DENKI) was used to carry out UV irradiation having irradiation intensity of 0.3 mW/cm^2. […] Irradiation intensity was adjusted by using a digital ultraviolet light intensity meter, UV-340 (AS ONE Corporation). During irradiation, mice were left for one and a half hour in an individualized cage having a size of 9 cm×5 cm×4 cm. […]

type I collagen = test: Quantification of type I collagen in skin extract by SDS-PAGE and Western blotting (Example 2); type: in vivo, Hos: HR-1 hairless mice; conditions: 0.24% glucosamine-mixed diet, UV-irradiated
Method: After the grouping, UV-irradiated groups were irradiated with UV light three times a week. Specifically, for the first week, 1 minute of UV irradiation was carried out. For the second week, 2 minutes of UV irradiation, and for the third and fourth week, 3 minutes of UV irradiation were conducted. From the fourth week to the time of dissection completed, 4 minutes of UV irradiation were carried out.
A UVB lump GL20SE (SANKYO DENKI) was used to carry out UV irradiation having irradiation intensity of 0.3 mW/cm^2. […] Irradiation intensity was adjusted by using a digital ultraviolet light intensity meter, UV-340 (AS ONE Corporation). During irradiation, mice were left for one and a half hour in an individualized cage having a size of 9 cm×5 cm×4 cm. In order to decrease a difference in irradiation intensity for respective cages, the mice were irradiated while subjected to a rotation in every occasion.
A frozen and crushed skin was degreased using methanol for 24 hours. Then, an appropriate amount of PBS (−) containing protease inhibitors was added, and the sample was stirred with a rotator and washed twice to remove serum components, etc. […]

carbonyl proteins = test: Quantification of carbonyl proteins in skin tissue by Oxyblot Western blotting (Example 2); type: in vivo, Hos: HR-1 hairless mice; conditions: 0.24% glucosamine-mixed diet, UV-irradiated
Method: After one week of acclimatization, 54 six-week-old male Hos: HR-1 hairless mice were used in experiments. The below-described diet was used, and the mice were reared under conditions at 25° C. while keeping a free access to food and water. In addition, during measurements of the skin moisture content, a humidity meter was used to determine humidity in an animal room. All experiments were conducted under approval (No. 19-76) of Animal Care and Use Committee of Tokyo University of Agriculture and Technology.
Preparation of an administration diet was ordered to Oriental Yeast Co., Ltd. First, 0.072% mangosteen pericarp extract-mixed diet and 0.15% mangosteen pericarp extract-mixed diet were used. In addition, 0.24% glucosamine-mixed diet was used as a positive control, and CRF-1 diet was used as a negative control. A daily amount of mangosteen pericarp extract ingested was set to 120 mg/kg body weight for the 0.072% group, and set to 250 mg/kg body weight for the 0.15% group as a rough guideline.
A study schedule is illustrated in FIG. 1. A study period was set to 8 weeks, and the study was carried out from October to December in 2007. […] The total irradiation amount was 1.35 J. In addition, moisture content and an amount of food ingested were measured twice a week, and body weight was measured once a week. […]

[1] = system: hairless mice of a photoaging model; test: Skin moisture content by CORNEOMETER CM825, mixed-diet administration (Example 2); type: in vivo, Hos: HR-1 hairless mice; conditions: 0.24% glucosamine-mixed diet
[2] = system: hairless mice of a photoaging model; test: Histological analysis of HE-stained dorsal skin (epidermis thickness, edema), mixed-diet administration (Example 2); type: in vivo, Hos: HR-1 hairless mice; conditions: 0.24% glucosamine-mixed diet
[3] = system: hairless mice, UVB irradiation; test: Skin moisture content by CORNEOMETER CM 825, oral forced administration (Example 3); type: in vivo; conditions: 20 mg/ml collagen solution, 0.1 ml/10 g body weight orally daily, UV-irradiated (collagen (+) group)
Method: Skin moisture content was measured using CORNEOMETER® CM825 (manufactured by COURAGE+KHAZAKA electronic GMBH) twice a week, the measurement being carried out by contacting a probe onto a lumbar region of a mouse prior to UVB irradiation. The measurements were conducted five times, and the average of them was designated as a measured value.
An administration sample employed a mangosteen pericarp formulation. Specifically, a formulation having a ratio of a mangosteen pericarp extract:gum arabic=1:1 was used. One having only gum arabic was used as a control, and collagen was used as a positive control. Solutions having respective concentrations were prepared. A solution having a concentration of 0.1 ml/10 g body weight was orally administered every day during the rearing period by using a stomach tube. Two kinds (a high concentration (24 mg/ml) and a low concentration (12 mg/ml)) of a solution containing a mangosteen pericarp extract were prepared. Then, 24 mg/ml of a gum arabic solution and 20 mg/ml of a collagen solution were prepared.
After 1 week of acclimatization, grouping was conducted based on skin moisture content and viscoelasticity. […]

Molecule	band intensity of HA (control (−) set to 1) (hyaluronic acid (HA))	type I collagen band intensity (control (−) set to 1; average of α-chain and β-chain) (type I collagen)	carbonyl protein band intensity (control (−) set to 1) (carbonyl proteins)	skin moisture content at week 8 ([1]; UV-irradiated (GlcN (+) group))	skin moisture content compared to control (+) ([1]; UV-irradiated, weeks 7 and 8)	thickness of the epidermis compared to control (−) ([2]; UV-irradiated)	thickness of the epidermis ([2]; UV-irradiated (GlcN (+) group)) [μm]	skin moisture content at week 7 [3]
N[C@H]1C(O)O[C@H](CO)[C@@H](O)[C@@H]1O (some centres unmarked) [GlcN, glucosamine]	0.58	1.25	1.63	62.96±2.78	significant increase	significant increase in the thickness of the epidermis	39.46±9.56	
collagen								68.54±2.91
